MIC data for seven molecules are collected here from DBAASP.

≈ marks a conversion by molar mass, not a printed value.

What all share (test): ≥ marks a high value that may be exact or a test limit, other limits are often not marked, values filed in µg/mL are converted to µM
The test system of experiment [1] is Bacillus subtilis.
Experiment [2] concerns Pseudomonas aeruginosa.
The test system of experiment [3] is Staphylococcus aureus.
Experiment [4] relates to Candida albicans F7-39/IDE99.
In experiment [5] the test system is Escherichia coli B.
For experiment [6], the system named is Acinetobacter baumannii.
For experiment [7], the system named is Raoultella terrigena.
For experiment [8], the system named is Enterococcus gallinarum.
Experiment [9] deals with Enterococcus faecalis.
The test system of experiment [10] is Candida albicans ATCC 90028.
The test system of experiment [11] is Proteus mirabilis ATCC 25933.
Experiment [12] deals with Pseudomonas aeruginosa ATCC 27853.
The test system of experiment [13] is Staphylococcus aureus NCTC 8325.
For experiment [14], the system named is Escherichia coli ATCC 25922.
Experiment [15] relates to Staphylococcus epidermidis RP62A.
In experiment [16] the test system is Enterobacter cloacae HNTCC 53001.
Experiment [17] has as its system Klebsiella pneumoniae KK3 9904.
In experiment [18] the test system is Enterococcus faecalis ATCC 29212.
For experiment [19], the system named is Candida albicans ATCC 18804.
The subject of experiment [20] is Aggregatibacter actinomycetemcomitans ATCC 29522.
Experiment [21] concerns Streptococcus mutans NCTC 10449.
Experiment [22] relates to Lactobacillus acidophilus NCTC 1723.
Experiment [23] relates to Enterococcus faecalis NCTC 12697.
Experiment [24] relates to Candida albicans NCTC 3179.
The subject of experiment [25] is Staphylococcus aureus ATCC 25923.
Experiment [26] deals with Staphylococcus epidermidis RP62A/1.
Experiment [27] concerns Klebsiella pneumoniae ATCC 700603.
For experiment [28], the system named is Escherichia coli ATCC 25726.
Experiment [29] has as its system Staphylococcus aureus ATCC 29213.
Experiment [30] deals with Stenotrophomonas maltophilia.
Experiment [31] relates to Streptococcus pyogenes KCTC 3096.
The subject of experiment [32] is Aspergillus flavus KCTC 7375.
In experiment [33] the test system is Bacillus subtilis KCTC 3068.
Experiment [34] deals with Pseudomonas aeruginosa KCTC 1637.
Experiment [35] has as its system Serratia marcescens KCTC 1299.
Experiment [36] deals with Staphylococcus aureus KCTC 1621.
Experiment [37] deals with Escherichia coli KCTC 1682.
Experiment [38] concerns Candida albicans KCTC 7121.
For experiment [39], the system named is Salmonella typhimurium KCTC 1926.
The subject of experiment [40] is Trichosporon beigelii KCTC 7251.
Experiment [41] deals with Fusarium oxysporum KCTC 6084.

As to `CC(C)C[C@@H]1NC(=O)[C@H](CCCCN)NC(=O)[C@H](CC(C)C)NC(=O)[C@@H]2CCCN2C(=O)CNC(=O)[C@H](CCCCN)NC(=O)[C@@H](NC(=O)[C@H](CCCCN)NC(=O)CNC(=O)[C@H](CCCCN)NC(=O)[C@H](CCCCN)NC(=O)[C@H](CCCCN)NC(=O)[C@H](C)N)CSSC[C@@H](C(N)=O)NC(=O)[C@H](CCCCN)NC(=O)[C@H](C)NC(=O)[C@H](C(C)C)NC1=O` [AKKKGKCKGPLKLVAKC], the MIC was not below 65 µM in [1]; more than 100 µM in experiment [2]; more than 100 µM in experiment [3]; not below 100 µM in experiment [4]; not below 100 µM in experiment [5].

For `CSCC[C@H](NC(=O)[C@H](C)NC(C)=O)C(=O)N[C@H](C(=O)NCC(=O)N[C@H](C(=O)O)[C@@H](C)O)C(C)C` [AMVGT], the MIC in experiment [6] is 26.3 µM (≈ 13.7 µg/mL); in [7], 26.3 µM (≈ 13.7 µg/mL); in [2], 26.3 µM (≈ 13.7 µg/mL); in [8], 26.3 µM (≈ 13.7 µg/mL); in experiment [9] it was not below 53.8 µM.

As to `CSCC[C@H](NC(=O)[C@@H](NC(=O)[C@H](CCCCN)NC(=O)[C@H](CO)NC(=O)[C@H](C)NC(=O)[C@H](CC(C)C)NC(=O)[C@H](CO)NC(=O)CNC(=O)[C@@H](NC(=O)[C@@H](NC(=O)[C@H](CC(N)=O)NC(=O)[C@H](CCCCN)NC(=O)[C@H](C)NC(=O)[C@H](C)NC(=O)CNC(=O)[C@H](CCCCN)NC(=O)[C@H](CC(C)C)NC(=O)[C@@H](NC(=O)[C@H](CC(=O)O)NC(=O)[C@H](CC(C)C)NC(=O)[C@H](CC(C)C)NC(=O)CN)[C@@H](C)O)C(C)C)C(C)C)C(C)C)C(=O)N[C@@H](CCC(=O)O)C(=O)N[C@@H](CCCCN)C(=O)N[C@@H](CC(C)C)C(N)=O` [GLLDTLKGAAKNVVGSLASKVMEKL], the MIC is not below 200 µM in experiment [10]; not below 200 µM in experiment [11]; 100 µM (≈ 254 µg/mL) in experiment [12]; not below 200 µM in experiment [13]; 25 µM (≈ 63.6 µg/mL) in [14]; not below 100 µM in experiment [15]. Further, the MIC in experiment [16] is not below 50 µM; in experiment [17] it was not below 100 µM; in experiment [18], 200 µM (≈ 508 µg/mL).

As for `CC[C@H](C)[C@H](NC(=O)[C@H](CC(=O)O)NC(=O)[C@H](CCCCN)NC(=O)[C@H](C)NC(=O)[C@H](C)NC(=O)CNC(=O)[C@H](CCCCN)NC(=O)[C@H](CC(C)C)NC(=O)[C@@H](NC(=O)[C@H](CC(=O)O)NC(=O)[C@@H](NC(=O)[C@@H](NC(=O)CN)C(C)C)C(C)C)[C@@H](C)CC)C(=O)N[C@@H](C)C(=O)NCC(=O)N[C@@H](Cc1cnc[nH]1)C(=O)N[C@@H](CC(C)C)C(=O)N[C@@H](C)C(=O)N[C@@H](CO)C(=O)N[C@@H](CCCCN)C(=O)N[C@H](C(=O)N[C@@H](CCSC)C(N)=O)C(C)C` [GVVDILKGAAKDIAGHLASKVM], the MIC is not below 234 µM in experiment [19], 114 µM (≈ 250 µg/mL) in experiment [14] and not below 222 µM in experiment [20].

In the case of `CSCC[C@H](NC(=O)[C@H](CC(C)C)NC(=O)CNC(=O)[C@@H](NC(=O)[C@H](Cc1ccccc1)NC(=O)[C@H](CO)NC(=O)[C@H](CC(=O)O)NC(=O)[C@@H](NC(=O)[C@H](CCCCN)NC(=O)[C@@H](N)Cc1cnc[nH]1)[C@@H](C)O)C(C)C)C(N)=O` [HKTDSFVGLM], the MIC is more than 441 µM in experiment [12]; not below 441 µM in experiment [21]; more than 441 µM in experiment [14]; not below 441 µM in [22]; not below 441 µM in [23]; not below 441 µM in experiment [24]. The same molecule showed an MIC in experiment [25] of more than 441 µM.

With `CC[C@H](C)[C@H](N)C(=O)N[C@@H](CCCCN)C(=O)N[C@@H](CC(C)C)C(=O)N[C@@H](CO)C(=O)N1CCC[C@H]1C(=O)N[C@@H](CCC(=O)O)C(=O)N[C@H](C(=O)N[C@@H](CCCCN)C(=O)N[C@@H](CCCCN)C(=O)N[C@@H](CC(N)=O)C(=O)N[C@@H](CC(C)C)C(=O)N[C@@H](CCCCN)C(=O)N[C@@H](CCCCN)C(=O)N[C@H](C(=O)N[C@@H](CC(C)C)C(=O)N[C@@H](CCCCN)C(=O)NCC(=O)N[C@@H](C)C(=O)N[C@H](C(=O)N[C@@H](CCCCN)C(=O)NCC(=O)N[C@@H](C)C(=O)N[C@H](C(=O)N[C@@H](C)C(=O)N[C@H](C(=O)N[C@@H](C)C(=O)N[C@@H](CCCCN)C(=O)N[C@@H](CCSC)C(=O)N[C@H](C(N)=O)C(C)C)C(C)C)[C@@H](C)CC)[C@@H](C)CC)C(C)C)[C@@H](C)O` [IKLSPETKKNLKKVLKGAIKGAIAVAKMV], the MIC was 3.1 µM (≈ 9.54 µg/mL) in [6]; 0.8 µM (≈ 2.46 µg/mL) in experiment [26]; 12.5 µM (≈ 38.5 µg/mL) in [27]; not below 50 µM in experiment [10]; not below 100 µM in experiment [11]; 25 µM (≈ 76.9 µg/mL) in experiment [12]. For the same molecule, the MIC is 6.25 µM (≈ 19.2 µg/mL) in experiment [28]; 3.1 µM (≈ 9.54 µg/mL) in experiment [29]; 3.1 µM (≈ 9.54 µg/mL) in experiment [30]; 1.6 µM (≈ 4.92 µg/mL) in experiment [15]; 3.1 µM (≈ 9.54 µg/mL) in experiment [25].

Take `CC[C@H](C)[C@H](NC(=O)[C@H](CCCCN)NC(=O)[C@H](CCCCN)NC(=O)[C@H](Cc1ccccc1)NC(=O)[C@H](CC(C)C)NC(=O)[C@H](CCCCN)NC(=O)[C@H](Cc1c[nH]c2ccccc12)NC(=O)[C@H](CCCCN)NC(=O)[C@@H]1CCCN1C(=O)[C@H](Cc1ccccc1)NC(=O)[C@H](CCCCN)NC(=O)[C@H](CCCCN)NC(=O)[C@H](C)NC(=O)[C@H](CC(C)C)NC(=O)[C@H](Cc1cnc[nH]1)NC(=O)[C@H](CC(C)C)NC(=O)[C@H](Cc1ccccc1)NC(=O)[C@@H](N)CCCCN)C(N)=O` [KFLHLAKKFPKWKLFKKI]: the MIC was found to be 3.13 µM (≈ 7.2 µg/mL) in [31]; 25 µM (≈ 57.5 µg/mL) in [32]; 0.78 µM (≈ 1.79 µg/mL) in experiment [33]; 1.56 µM (≈ 3.59 µg/mL) in experiment [34]; 3.13 µM (≈ 7.2 µg/mL) in [35]; 1.56 µM (≈ 3.59 µg/mL) in experiment [36]. In addition, the MIC in experiment [37] is 3.13 µM (≈ 7.2 µg/mL); in experiment [38] it was 12.5 µM (≈ 28.7 µg/mL); in [39], 1.56 µM (≈ 3.59 µg/mL); in [40] it was 12.5 µM (≈ 28.7 µg/mL); in [41], 25 µM (≈ 57.5 µg/mL).
